Target: Albumin (Homo sapiens, UniProt P02768)
Assay: In vitro Ka value against human serum albumin; N=1

Chain of Albumin (P02768 whole entry): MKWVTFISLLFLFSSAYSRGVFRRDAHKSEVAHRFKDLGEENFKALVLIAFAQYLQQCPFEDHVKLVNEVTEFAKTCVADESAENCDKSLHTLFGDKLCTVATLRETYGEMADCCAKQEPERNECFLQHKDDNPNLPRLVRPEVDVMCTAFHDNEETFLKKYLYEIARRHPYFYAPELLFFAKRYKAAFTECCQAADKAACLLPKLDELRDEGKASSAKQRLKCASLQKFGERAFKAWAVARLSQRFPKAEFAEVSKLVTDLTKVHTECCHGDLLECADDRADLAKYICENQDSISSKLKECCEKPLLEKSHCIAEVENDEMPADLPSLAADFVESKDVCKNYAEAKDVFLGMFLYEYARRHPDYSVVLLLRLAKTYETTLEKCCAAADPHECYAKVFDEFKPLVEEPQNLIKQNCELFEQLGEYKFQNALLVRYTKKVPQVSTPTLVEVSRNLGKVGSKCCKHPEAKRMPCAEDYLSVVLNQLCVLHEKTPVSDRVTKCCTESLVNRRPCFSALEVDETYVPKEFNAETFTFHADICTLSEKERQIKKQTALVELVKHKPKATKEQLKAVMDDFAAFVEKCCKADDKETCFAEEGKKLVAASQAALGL

Ka: 67000 M⁻¹
SMILES: CCCCC/C=C\C[C@@H](O)/C=C/C=C/C=C\[C@@H](O)CCCC(=O)O [LEUKOTRIENE_B4]

From ChEMBL document CHEMBL1142776, “In vitro binding of leukotriene B4 (LTB4) to human serum albumin: evidence from spectroscopic, molecular modeling, and competitive displacement studies” (Bioorg Med Chem Lett, 2005)
